US20230085307A1, “PYRIDAZINONE COMPOUND AND HERBICIDE” (NISSAN CHEMICAL CORPORATION, priority 2019, published 2023)

Assays:
southern crabgrass [1] = experiment: Test Example 4: herbicidal effect by soil treatment (Table 19, symbol F); assay type: in vivo, southern crabgrass (Digitaria ciliaris); conditions: amount of applied herbicide 320 g/ha
Method in brief: (§1)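 Three weeks of greenhouse growth at 25° C. to 30° C. followed a uniform surface spray of water-diluted emulsion at a predetermined herbicide amount. Seeds had been sown beforehand under about 1.5 cm of sterilized diluvial soil. Grading followed criteria set out in an earlier test.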

wild oat [2] = experiment: Test Example 4: herbicidal effect by soil treatment (Table 19, symbol I); assay type: in vivo, wild oat (Avena fatua); conditions: amount of applied herbicide 320 g/ha
Method in brief: as §1

barnyard grass [3] = experiment: Test Example 4: herbicidal effect by soil treatment (Table 19, symbol H); assay type: in vivo, barnyard grass (Echinochloa crus-galli); conditions: amount of applied herbicide 320 g/ha
Method in brief: as §1

green foxtail [4] = experiment: Test Example 5: herbicidal effect by foliage application, plastic box (Table 20, symbol G); assay type: in vivo, green foxtail (Setaria viridis); conditions: foliage application, 320 g/ha
Method in brief: (§2)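 Plants sown in sterilized diluvial soil and grown 14 days in a greenhouse at 25° C to 30° C, then sprayed on the foliage with the compound's emulsion diluted in water to a predetermined herbicide amount. Injury to weeds and crops scored three weeks after application on a visual rating scale.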

Chinese sprangletop = experiment: Test Example 3: herbicidal effect by foliage application, Wagner pot (Table 18, symbol D); assay type: in vivo, chinese sprangletop (Leptochloa chinensis)
Method in brief: (§3)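 Plants were sown in alluvial soil held under 0.1–0.5 cm standing water and grown 14 days in a greenhouse at 25–30 °C. An emulsifiable formulation, water-diluted to the set dose, was then sprayed onto the foliage, and effects were scored three weeks later using previously defined criteria.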

barnyard grass [5] = experiment: Test Example 5: herbicidal effect by foliage application, plastic box (Table 20, symbol H); assay type: in vivo, barnyard grass (Echinochloa crus-galli); conditions: foliage application, 320 g/ha
Method in brief: as §2

windgrass [6] = experiment: Test Example 5: herbicidal effect by foliage application, plastic box (Table 20, symbol L); assay type: in vivo, windgrass (Apera spica-venti); conditions: foliage application, 320 g/ha
Method in brief: as §2

blackgrass [7] = experiment: Test Example 4: herbicidal effect by soil treatment (Table 19, symbol J); assay type: in vivo, blackgrass (Alopecurus myosuroides); conditions: amount of applied herbicide 320 g/ha
Method in brief: as §1

southern crabgrass [8] = experiment: Test Example 5: herbicidal effect by foliage application, plastic box (Table 20, symbol F); assay type: in vivo, southern crabgrass (Digitaria ciliaris); conditions: foliage application, 320 g/ha
Method in brief: as §2

velvetleaf [9] = experiment: Test Example 5: herbicidal effect by foliage application, plastic box (Table 20, symbol M); assay type: in vivo, velvetleaf (Abutilon theophrasti); conditions: foliage application, 320 g/ha
Method in brief: as §2

Italian ryegrass [10] = experiment: Test Example 4: herbicidal effect by soil treatment (Table 19, symbol K); assay type: in vivo, Italian ryegrass (Lolium multiflorum); conditions: amount of applied herbicide 320 g/ha
Method in brief: as §1

barnyard grass [11] = experiment: Test Example 3: herbicidal effect by foliage application, Wagner pot (Table 18, symbol H); assay type: in vivo, barnyard grass (Echinochloa crus-galli)
Method in brief: as §3

rice flat sedge = experiment: Test Example 3: herbicidal effect by foliage application, Wagner pot (Table 18, symbol E); assay type: in vivo, rice flat sedge (Cyperus iria)
Method in brief: as §3

green foxtail [12] = experiment: Test Example 4: herbicidal effect by soil treatment (Table 19, symbol G); assay type: in vivo, green foxtail (Setaria viridis); conditions: amount of applied herbicide 320 g/ha
Method in brief: as §1

wild oat [13] = experiment: Test Example 5: herbicidal effect by foliage application, plastic box (Table 20, symbol I); assay type: in vivo, wild oat (Avena fatua); conditions: foliage application, 320 g/ha
Method in brief: as §2

false cleavers [14] = experiment: Test Example 5: herbicidal effect by foliage application, plastic box (Table 20, symbol Q); assay type: in vivo, false cleavers (Galium spurium); conditions: foliage application, 320 g/ha
Method in brief: as §2

redroot pigweed [15] = experiment: Test Example 4: herbicidal effect by soil treatment (Table 19, symbol N); assay type: in vivo, redroot pigweed (Amaranthus retroflexus); conditions: amount of applied herbicide 320 g/ha
Method in brief: as §1

persian speedwell [16] = experiment: Test Example 5: herbicidal effect by foliage application, plastic box (Table 20, symbol R); assay type: in vivo, Persian speedwell (Veronica persica); conditions: foliage application, 320 g/ha
Method in brief: as §2

false cleavers [17] = experiment: Test Example 4: herbicidal effect by soil treatment (Table 19, symbol Q); assay type: in vivo, false cleavers (Galium spurium); conditions: amount of applied herbicide 320 g/ha
Method in brief: as §1

redroot pigweed [18] = experiment: Test Example 5: herbicidal effect by foliage application, plastic box (Table 20, symbol N); assay type: in vivo, redroot pigweed (Amaranthus retroflexus); conditions: foliage application, 320 g/ha
Method in brief: as §2

chickweed [19] = experiment: Test Example 4: herbicidal effect by soil treatment (Table 19, symbol P); assay type: in vivo, common chickweed (Stellaria media); conditions: amount of applied herbicide 320 g/ha
Method in brief: as §1

windgrass [20] = experiment: Test Example 4: herbicidal effect by soil treatment (Table 19, symbol L); assay type: in vivo, windgrass (Apera spica-venti); conditions: amount of applied herbicide 320 g/ha
Method in brief: as §1

velvetleaf [21] = experiment: Test Example 4: herbicidal effect by soil treatment (Table 19, symbol M); assay type: in vivo, velvetleaf (Abutilon theophrasti); conditions: amount of applied herbicide 320 g/ha
Method in brief: as §1

persian speedwell [22] = experiment: Test Example 4: herbicidal effect by soil treatment (Table 19, symbol R); assay type: in vivo, Persian speedwell (Veronica persica); conditions: amount of applied herbicide 320 g/ha
Method in brief: as §1

Italian ryegrass [23] = experiment: Test Example 5: herbicidal effect by foliage application, plastic box (Table 20, symbol K); assay type: in vivo, Italian ryegrass (Lolium multiflorum); conditions: foliage application, 320 g/ha
Method in brief: as §2

chickweed [24] = experiment: Test Example 5: herbicidal effect by foliage application, plastic box (Table 20, symbol P); assay type: in vivo, common chickweed (Stellaria media); conditions: foliage application, 320 g/ha
Method in brief: as §2

blackgrass [25] = experiment: Test Example 5: herbicidal effect by foliage application, plastic box (Table 20, symbol J); assay type: in vivo, blackgrass (Alopecurus myosuroides); conditions: foliage application, 320 g/ha
Method in brief: as §2

lambsquarters [26] = experiment: Test Example 5: herbicidal effect by foliage application, plastic box (Table 20, symbol O); assay type: in vivo, lambsquarters (Chenopodium album); conditions: foliage application, 320 g/ha
Method in brief: as §2

lambsquarters [27] = experiment: Test Example 4: herbicidal effect by soil treatment (Table 19, symbol O); assay type: in vivo, lambsquarters (Chenopodium album); conditions: amount of applied herbicide 320 g/ha
Method in brief: as §1

[28] = evaluated three weeks after application
[29] = amount of applied herbicide 320 g/ha

CCCC(=O)Oc1c(C)nn(C)c(=O)c1-c1c(-c2cc(F)ccc2OC)sc2ccc(C)cc12 [2-151]
F: southern crabgrass, herbicidal effect rating (southern crabgrass [1]): 0 (Herbicidal rate of 5% or less (almost no effect))
I: wild oat, herbicidal effect rating (wild oat [2]): 0 (Herbicidal rate of 5% or less (almost no effect))
H: barnyard grass, herbicidal effect rating (barnyard grass [3]): 0 (Herbicidal rate of 5% or less (almost no effect))
herbicidal effect on G: green foxtail (criteria 0-5) (green foxtail [4]; [28]): 0 (Herbicidal rate of 5% or less (almost no effect))
herbicidal effect on D: Chinese sprangletop (Chinese sprangletop; [29]): 0 (Herbicidal rate of 5% or less (almost no effect))
herbicidal effect on H: barnyard grass (criteria 0-5) (barnyard grass [5]; [28]): 0 (Herbicidal rate of 5% or less (almost no effect))
herbicidal effect on L: windgrass (criteria 0-5) (windgrass [6]; [28]): 0 (Herbicidal rate of 5% or less (almost no effect))
J: blackgrass, herbicidal effect rating (blackgrass [7]): 0 (Herbicidal rate of 5% or less (almost no effect))
herbicidal effect on F: southern crabgrass (criteria 0-5) (southern crabgrass [8]; [28]): 0 (Herbicidal rate of 5% or less (almost no effect))
herbicidal effect on M: velvetleaf (criteria 0-5) (velvetleaf [9]; [28]): 1 (Herbicidal rate of 5% or more and less than 20%)
K: Italian ryegrass, herbicidal effect rating (Italian ryegrass [10]): 0 (Herbicidal rate of 5% or less (almost no effect))
herbicidal effect on H: barnyard grass (barnyard grass [11]; [29]): 3 (Herbicidal rate of 40% or more and less than 70%)
herbicidal effect on E: rice flat sedge (rice flat sedge; [29]): 3 (Herbicidal rate of 40% or more and less than 70%)
G: green foxtail, herbicidal effect rating (green foxtail [12]): 0 (Herbicidal rate of 5% or less (almost no effect))
herbicidal effect on I: wild oat (criteria 0-5) (wild oat [13]; [28]): 0 (Herbicidal rate of 5% or less (almost no effect))
herbicidal effect on Q: false cleavers (criteria 0-5) (false cleavers [14]; [28]): 2 (Herbicidal rate of 20% or more and less than 40%)
N: redroot pigweed, herbicidal effect rating (redroot pigweed [15]): 4 (Herbicidal rate of 70% or more and less than 90%)
herbicidal effect on R: persian speedwell (criteria 0-5) (persian speedwell [16]; [28]): 4 (Herbicidal rate of 70% or more and less than 90%)
Q: false cleavers, herbicidal effect rating (false cleavers [17]): 0 (Herbicidal rate of 5% or less (almost no effect))
herbicidal effect on N: redroot pigweed (criteria 0-5) (redroot pigweed [18]; [28]): 3 (Herbicidal rate of 40% or more and less than 70%)
P: chickweed, herbicidal effect rating (chickweed [19]): 1 (Herbicidal rate of 5% or more and less than 20%)
L: windgrass, herbicidal effect rating (windgrass [20]): 0 (Herbicidal rate of 5% or less (almost no effect))
M: velvetleaf, herbicidal effect rating (velvetleaf [21]): 0 (Herbicidal rate of 5% or less (almost no effect))
R: persian speedwell, herbicidal effect rating (persian speedwell [22]): 3 (Herbicidal rate of 40% or more and less than 70%)
herbicidal effect on K: Italian ryegrass (criteria 0-5) (Italian ryegrass [23]; [28]): 0 (Herbicidal rate of 5% or less (almost no effect))
herbicidal effect on P: chickweed (criteria 0-5) (chickweed [24]; [28]): 4 (Herbicidal rate of 70% or more and less than 90%)
herbicidal effect on J: blackgrass (criteria 0-5) (blackgrass [25]; [28]): 0 (Herbicidal rate of 5% or less (almost no effect))
herbicidal effect on O: lambsquarters (criteria 0-5) (lambsquarters [26]; [28]): 2 (Herbicidal rate of 20% or more and less than 40%)
O: lambsquarters, herbicidal effect rating (lambsquarters [27]): 4 (Herbicidal rate of 70% or more and less than 90%)

COc1ccc2c(-c3c(O)c(C)nn(C)c3=O)c(-c3ccc(F)cc3)sc2c1 [3-063]
F: southern crabgrass, herbicidal effect grade (southern crabgrass [1]): 0 (Herbicidal rate of 5% or less (almost no effect))
I: wild oat, herbicidal effect grade (wild oat [2]): 1 (Herbicidal rate of 5% or more and less than 20%)
H: barnyard grass, herbicidal effect grade (barnyard grass [3]): 0 (Herbicidal rate of 5% or less (almost no effect))
G: green foxtail, herbicidal effect grade (green foxtail [4]; three weeks after application): 0 (Herbicidal rate of 5% or less (almost no effect))
herbicidal effect on Chinese sprangletop (D) (Chinese sprangletop; 320 g/ha): 0 (Herbicidal rate of 5% or less (almost no effect))
H: barnyard grass, herbicidal effect grade (barnyard grass [5]; three weeks after application): 0 (Herbicidal rate of 5% or less (almost no effect))
L: windgrass, herbicidal effect grade (windgrass [6]; three weeks after application): 2 (Herbicidal rate of 20% or more and less than 40%)
J: blackgrass, herbicidal effect grade (blackgrass [7]): 0 (Herbicidal rate of 5% or less (almost no effect))
F: southern crabgrass, herbicidal effect grade (southern crabgrass [8]; three weeks after application): 0 (Herbicidal rate of 5% or less (almost no effect))
M: velvetleaf, herbicidal effect grade (velvetleaf [9]; three weeks after application): 5 (Herbicidal rate of 90% or more (almost completely withered))
K: Italian ryegrass, herbicidal effect grade (Italian ryegrass [10]): 0 (Herbicidal rate of 5% or less (almost no effect))
herbicidal effect on barnyard grass (H) (barnyard grass [11]; 320 g/ha): 0 (Herbicidal rate of 5% or less (almost no effect))
herbicidal effect on rice flat sedge (E) (rice flat sedge; 320 g/ha): 5 (Herbicidal rate of 90% or more (almost completely withered))
G: green foxtail, herbicidal effect grade (green foxtail [12]): 0 (Herbicidal rate of 5% or less (almost no effect))
I: wild oat, herbicidal effect grade (wild oat [13]; three weeks after application): 2 (Herbicidal rate of 20% or more and less than 40%)
Q: false cleavers, herbicidal effect grade (false cleavers [14]; three weeks after application): 5 (Herbicidal rate of 90% or more (almost completely withered))
N: redroot pigweed, herbicidal effect grade (redroot pigweed [15]): 3 (Herbicidal rate of 40% or more and less than 70%)
R: persian speedwell, herbicidal effect grade (persian speedwell [16]; three weeks after application): 5 (Herbicidal rate of 90% or more (almost completely withered))
Q: false cleavers, herbicidal effect grade (false cleavers [17]): 2 (Herbicidal rate of 20% or more and less than 40%)
N: redroot pigweed, herbicidal effect grade (redroot pigweed [18]; three weeks after application): 4 (Herbicidal rate of 70% or more and less than 90%)
P: chickweed, herbicidal effect grade (chickweed [19]): 5 (Herbicidal rate of 90% or more (almost completely withered))
L: windgrass, herbicidal effect grade (windgrass [20]): 0 (Herbicidal rate of 5% or less (almost no effect))
M: velvetleaf, herbicidal effect grade (velvetleaf [21]): 2 (Herbicidal rate of 20% or more and less than 40%)
R: persian speedwell, herbicidal effect grade (persian speedwell [22]): 5 (Herbicidal rate of 90% or more (almost completely withered))
K: Italian ryegrass, herbicidal effect grade (Italian ryegrass [23]; three weeks after application): 3 (Herbicidal rate of 40% or more and less than 70%)
P: chickweed, herbicidal effect grade (chickweed [24]; three weeks after application): 5 (Herbicidal rate of 90% or more (almost completely withered))
J: blackgrass, herbicidal effect grade (blackgrass [25]; three weeks after application): 0 (Herbicidal rate of 5% or less (almost no effect))
O: lambsquarters, herbicidal effect grade (lambsquarters [26]; three weeks after application): 3 (Herbicidal rate of 40% or more and less than 70%)
O: lambsquarters, herbicidal effect grade (lambsquarters [27]): 5 (Herbicidal rate of 90% or more (almost completely withered))
